Experimental data reported in ChEMBL document CHEMBL4837260, “Structure-Guided Design of a Small-Molecule Activator of Sirtuin-3 that Modulates Autophagy in Triple Negative Breast Cancer” (J Med Chem, 2021).

Columns and labels:
[1] = target: T1, NAD-dependent protein deacetylase sirtuin-3, mitochondrial (Homo sapiens, UniProt Q9NTG7); assay: Activation of recombinant human SIRT3 assessed as lysyl deacetylase activity using (Gln-Pro-Lys-Lys(Ac)) peptide substrate by fluorescent assay
T1 sequence (Q9NTG7 whole entry): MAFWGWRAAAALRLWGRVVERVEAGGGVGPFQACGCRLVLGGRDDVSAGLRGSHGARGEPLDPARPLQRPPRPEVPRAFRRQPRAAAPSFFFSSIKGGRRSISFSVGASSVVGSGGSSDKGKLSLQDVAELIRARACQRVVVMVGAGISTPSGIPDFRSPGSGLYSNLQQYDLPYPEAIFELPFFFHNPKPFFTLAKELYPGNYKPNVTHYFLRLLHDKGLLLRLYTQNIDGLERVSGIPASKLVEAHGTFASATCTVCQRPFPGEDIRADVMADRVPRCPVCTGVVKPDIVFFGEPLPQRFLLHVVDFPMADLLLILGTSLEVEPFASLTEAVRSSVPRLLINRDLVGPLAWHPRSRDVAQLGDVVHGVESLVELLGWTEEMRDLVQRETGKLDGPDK

[2] = system: MDA-MB-231; assay: Antiproliferative activity against human MDA-MB-231 cells measured after 24 hrs by MTT assay; type: functional, cell-based; conditions: MDA-MB-231, 24 h
[3] = system: MCF7; assay: Antiproliferative activity against human MCF7 cells measured after 24 hrs by MTT assay; type: functional, cell-based; conditions: MCF7, 24 h
[4] = system: HL-60; assay: Antiproliferative activity against human HL-60 cells measured after 24 hrs by MTT assay; type: functional, cell-based; conditions: HL-60, 24 h
[5] = system: U-937; assay: Antiproliferative activity against human U-937 cells measured after 24 hrs by MTT assay; type: functional, cell-based; conditions: U-937, 24 h
[6] = Toxicity in BALB/c mouse xenografted with human MDA-MB-231 cells assessed as change in body weight at 25 mg/kg once daily for 1 week; type: organism-based; conditions: in vivo, 168 h, time 1 weeks
[7] = Toxicity in BALB/c mouse xenografted with human MDA-MB-231 cells assessed as widening of the pulmonary septum and more cellular components at 100 mg/kg once daily for 1 week by H&E staining; type: organism-based; conditions: in vivo, 168 h, time 1 weeks
[8] = Toxicity in BALB/c mouse xenografted with human MDA-MB-231 cells assessed as change in body weight at 100 mg/kg once daily for 1 week; type: organism-based; conditions: in vivo, 168 h, time 1 weeks

| Structure (SMILES) | EC50 [1] [µM] | IC50 [2] [µM] | IC50 [3] [µM] | IC50 [4] [µM] | IC50 [5] [µM] | Activity [6] | Activity [7] | Activity [8] |
| --- | --- | --- | --- | --- | --- | --- | --- | --- |
| CCCCNC(=O)COc1ccc(C(=O)c2c(CCCC)oc3ccccc23)cc1 | 18.9 | 34.5 | > 50 | > 50 | 22.8 |  |  |  |
| CCCCc1oc2ccccc2c1C(=O)c1cc(Cl)c(OCCCN2CCCC2)c(Cl)c1 | 0.81 | 28.2 | 27.7 | 11.3 | 25.2 |  |  |  |
| CCCCc1oc2ccccc2c1C(=O)c1ccc(OCC(=O)N2CCCCC2)cc1 | 2.68 | > 50 | > 50 | > 50 | 37.1 |  |  |  |
| CCCCc1oc2ccccc2c1C(=O)c1ccc(OCCCC(=O)N2CCCCC2)cc1 | 2.38 | 36 | 33 | 31.9 | 16.6 |  |  |  |
| CCCCc1oc2ccccc2c1C(=O)c1cc(I)c(OCCN(CC)CC)c(I)c1 [AMIODARONE] | 3.25 |  |  |  |  |  |  |  |
| CCCCc1oc2ccccc2c1C(=O)c1cc(I)c(OCCCN2CCCCC2)c(I)c1 | 1.65 | 15.7 | 37.9 | 11.5 | 18.2 |  |  |  |
| CCCCc1oc2ccccc2c1C(=O)c1cc(I)c(OCCN(C)C)c(I)c1 | 4.69 | 6.6 | 39.4 | 8.22 | 8.68 |  |  |  |
| CCCCc1oc2ccccc2c1C(=O)c1cc(I)c(OCCCC2CCCC2)c(I)c1 |  | > 50 | > 50 | > 50 | 42.2 |  |  |  |
| CCCCc1oc2ccccc2c1C(=O)c1ccc(OCCCC(=O)N2CCOCC2)cc1 | 3.02 | 31.6 | 41.2 | 34 | 21.4 |  |  |  |
| Oc1ccc(/C=C/c2cc(O)cc(O)c2)cc1 [RESVERATROL] | 55.2 | 98.8 |  |  |  |  |  |  |
| CCCCc1oc2ccccc2c1C(=O)c1cc(I)c(OCCCN2CCCC2)c(I)c1 |  |  |  |  |  | Non-Toxic | Non-Toxic | Non-Toxic |
| CCCCc1oc2ccccc2c1C(=O)c1ccc(OCC(=O)N2CCOCC2)cc1 | 1.23 | > 50 | 34 | > 50 | 45.4 |  |  |  |
| CCCCc1oc2ccccc2c1C(=O)c1ccc(OCCCC(=O)N[C@@H](C)c2ccccc2)cc1 | 7.01 | > 50 | > 50 | > 50 | 22.4 |  |  |  |
| C=CCc1ccc(O)c(-c2ccc(O)c(CC=C)c2)c1 [HONOKIOL] | 0.17 | 44.9 |  |  |  |  |  |  |
| CCCCc1oc2ccccc2c1C(=O)c1ccc(OCCCC(=O)N[C@H](C)c2ccccc2)cc1 |  | > 50 | > 50 | > 50 | 30.7 |  |  |  |
| CCCCc1oc2ccccc2c1C(=O)c1cc(I)c(OCCCN2CCN(Cc3ccccc3)CC2)c(I)c1 |  | 15.7 | 28.7 | > 50 | 41.4 |  |  |  |

| Structure (SMILES) | EC50 [1] [µM] | IC50 [2] [µM] | IC50 [3] [µM] | IC50 [4] [µM] | IC50 [5] [µM] | Activity [6] | Activity [7] | Activity [8] |
| --- | --- | --- | --- | --- | --- | --- | --- | --- |
| CCCCc1oc2ccccc2c1C(=O)c1cc(I)c(OCCCN(C)Cc2ccccc2)c(I)c1 |  | 54 | 8.02 | 8.51 | 6.86 |  |  |  |
| CCCCc1oc2ccccc2c1C(=O)c1ccc(OCC(=O)N[C@H](C)c2ccccc2)cc1 | 17.4 | 39 | 14.1 | > 50 | 19.8 |  |  |  |
| CCCCNC(=O)CCCOc1ccc(C(=O)c2c(CCCC)oc3ccccc23)cc1 | 16.7 | 38.1 | > 50 | > 50 | 24.6 |  |  |  |
| CCCCc1oc2ccccc2c1C(=O)c1ccc(OCC(=O)N[C@@H](C)c2ccccc2)cc1 |  | > 50 | 17.9 | > 50 | 33.8 |  |  |  |
| CCCCc1oc2ccccc2c1C(=O)c1cc(I)c(OCCCNCc2ccccc2)c(I)c1 | 10.7 | 11.6 | 8.05 | 4.4 | 2.3 |  |  |  |
| CCCCc1oc2ccccc2c1C(=O)c1cc(I)c(OCCCN2CCN(C)CC2)c(I)c1 | 3.46 | 8.76 | 5.37 | > 50 | > 50 |  |  |  |
| CCCCc1oc2ccccc2c1C(=O)c1cc(I)c(OCCN2CCCC2)c(I)c1 | 16.2 | 20.4 | > 50 | 23.2 | 31.7 |  |  |  |
| CCCCc1oc2ccccc2c1C(=O)c1ccc(OCC(N)=O)cc1 |  | > 50 | > 50 | > 50 | 42.2 |  |  |  |
| CCCCc1oc2ccccc2c1C(=O)c1ccc(OCCN(CC)CC)cc1 |  | 19.4 | 5.26 | 2.77 | 3.47 |  |  |  |
| CCCCc1oc2ccccc2c1C(=O)c1cc(I)c(OCCCN(CC)CC)c(I)c1 | 4.15 | 26.8 | 21.5 | 16 | 30 |  |  |  |
| CCCCc1oc2ccccc2c1C(=O)c1ccc(OCCCN2CCCC2)cc1 |  | 19.5 | 3.73 | 6.38 | 6.82 |  |  |  |
| CCCCc1oc2ccccc2c1C(=O)c1ccc(OCC(=O)Nc2cccc(OC)c2)cc1 |  | > 50 | 38.5 | > 50 | 24.2 |  |  |  |
| CCCCc1oc2ccccc2c1C(=O)c1ccc(OCC(=O)NCc2ccccc2)cc1 |  | > 50 | 19.6 | > 50 | 16.3 |  |  |  |
| CCCCc1oc2ccccc2c1C(=O)c1ccc(OCCCC(=O)N(C)Cc2ccccc2)cc1 |  | > 50 | > 50 | > 50 | 10.5 |  |  |  |
| CCCCc1oc2ccccc2c1C(=O)c1ccc(OCCCC(=O)NCc2ccccc2)cc1 |  | > 50 | 49.7 | 28.9 | 15.8 |  |  |  |
